pIC50, pKd: −log10 of the molar value.
Columns and labels:
[1] = target: T1, Dihydrolipoyllysine-residue acetyltransferase component of pyruvate dehydrogenase complex, mitochondrial (Homo sapiens, UniProt P10515); assay: Binding affinity to recombinant GFP fused […] (unknown origin) by Lip-SMap analysis
T1 sequence (P10515 whole entry): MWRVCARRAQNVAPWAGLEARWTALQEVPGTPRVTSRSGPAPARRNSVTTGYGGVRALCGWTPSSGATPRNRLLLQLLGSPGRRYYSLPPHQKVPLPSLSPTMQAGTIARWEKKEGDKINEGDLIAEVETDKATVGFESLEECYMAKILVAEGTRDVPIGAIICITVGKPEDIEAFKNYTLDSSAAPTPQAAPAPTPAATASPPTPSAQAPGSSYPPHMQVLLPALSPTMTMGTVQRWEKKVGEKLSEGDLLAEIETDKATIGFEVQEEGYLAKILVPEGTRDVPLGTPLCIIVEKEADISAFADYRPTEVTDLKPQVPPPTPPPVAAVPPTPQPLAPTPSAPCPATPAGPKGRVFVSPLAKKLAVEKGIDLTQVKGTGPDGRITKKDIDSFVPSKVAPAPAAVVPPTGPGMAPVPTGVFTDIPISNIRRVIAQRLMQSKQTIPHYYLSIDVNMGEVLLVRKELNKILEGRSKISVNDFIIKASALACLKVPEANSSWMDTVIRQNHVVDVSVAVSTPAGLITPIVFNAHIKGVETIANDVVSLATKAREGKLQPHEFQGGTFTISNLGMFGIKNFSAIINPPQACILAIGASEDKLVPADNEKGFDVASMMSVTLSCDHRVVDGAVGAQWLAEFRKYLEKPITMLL

[2] = system: Mus musculus; assay: Anti-obesity activity in male C57BL/6 mouse model of high-fat diet induced obesity assessed as body weight change at 2.5 mg/kg, ip administered once a day for 8 weeks relative to control; format: functional
[3] = system: Mus musculus; assay: Anti-obesity activity in male C57BL/6 mouse model of high-fat diet induced obesity assessed as body weight change administered orally with 0.5 g in 500 g of HFD diet for 13 weeks relative to control; format: functional; details: route po, at 0.5 g
[4] = system: Mus musculus; assay: Anti-obesity activity in male C57BL/6 mouse model of high-fat diet induced obesity assessed as body weight change at 30 mg/kg, po administered once a day for 10 weeks relative to control; format: functional
[5] = system: Mus musculus; assay: Anti-obesity activity in high-fat diet induced C57BL/6 obese mouse model assessed as body weight change at 30 mg/kg, po administered once daily for 10 weeks relative to control; format: functional
[6] = system: Mus musculus; assay: Anti-obesity activity in male C57BL/6 mouse model of high-fat diet induced obesity assessed as body weight change at 25 mg/kg, ip administered once a day for 13 weeks relative to control; format: functional
[7] = system: Mus musculus; assay: Anti-obesity activity in male C57BL/6 mouse model of high-fat diet induced obesity assessed as body weight change at 50 mg/kg, ip administered every other day for 5 weeks relative to control; format: functional
[8] = system: Mus musculus; assay: Anti-obesity activity in female C57BL/6 mouse model of high-fat diet induced obesity assessed as body weight change at 40 mg/kg, po administered once daily for 16 weeks relative to control; format: functional
[9] = system: Mus musculus; assay: Anti-obesity activity in ovariectomized C57BL/6 mouse assessed as body weight change at 40 mg/kg, po administered once daily for 16 weeks relative to control; format: functional
[10] = target: T2, Pancreatic triacylglycerol lipase (Sus scrofa, UniProt P00591); assay: Inhibition of porcine pancreatic lipase using trioleate as substrate assessed as inhibition of substrate hydrolysis measured for 10 mins
T2 sequence (P00591 whole entry): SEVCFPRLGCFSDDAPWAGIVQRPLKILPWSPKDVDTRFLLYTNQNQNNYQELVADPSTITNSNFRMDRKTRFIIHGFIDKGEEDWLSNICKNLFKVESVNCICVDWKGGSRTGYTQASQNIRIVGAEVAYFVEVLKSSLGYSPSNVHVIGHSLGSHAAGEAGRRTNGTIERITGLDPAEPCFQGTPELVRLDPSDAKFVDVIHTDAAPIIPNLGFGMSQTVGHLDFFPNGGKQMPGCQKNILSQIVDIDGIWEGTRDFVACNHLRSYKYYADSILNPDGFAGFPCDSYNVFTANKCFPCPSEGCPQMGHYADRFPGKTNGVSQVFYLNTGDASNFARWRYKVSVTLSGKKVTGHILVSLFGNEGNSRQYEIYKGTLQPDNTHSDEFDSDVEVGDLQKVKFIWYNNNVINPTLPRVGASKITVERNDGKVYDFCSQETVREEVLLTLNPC

[11] = system: Mus musculus; assay: Anti-obesity activity in high-fat diet induced obesity model of C57BL/6J mouse assessed as body weight loss at 20 mg/kg/day, po administered once daily for 14 days relative to control; format: functional; details: time 14 day
[12] = system: Mus musculus; assay: Anti-obesity activity in high-fat diet induced obesity model of C57BL/6J mouse assessed as body weight loss at 40 mg/kg/day, ip administered once daily for 14 days relative to control; format: functional; details: time 14 day
[13] = Acute toxicity in po dosed C57BL/6J mouse assessed as lethal dose; format: organism-based; details: in vivo
[14] = target: BDNF/NT-3 growth factors receptor (Homo sapiens, UniProt Q16620); assay: Binding affinity to recombinant human TrkB receptor ECD assessed as dissociation constant
[15] = system: Mus musculus; assay: Anti-obesity activity in female C57BL/6 mouse model of high-fat diet induced obesity assessed as body weight change administered orally for 20 weeks relative to control; format: functional; details: route po
[16] = system: Mus musculus; assay: Anti-obesity activity in male C57BL/6 mouse model of high-fat diet induced obesity assessed as body weight change at 15 mg/kg, ip administered once a day for 8 weeks relative to control; format: functional
[17] = Toxicity in po dosed mouse assessed as lethal dose; format: organism-based; details: in vivo
[18] = system: Mus musculus; assay: Anti-obesity activity in male C57BL/6 mouse model of high-fat diet induced obesity assessed as body weight change at 3 mg/kg, po administered once a day for 8 weeks relative to control; format: functional
[19] = system: Mus musculus; assay: Anti-obesity activity in male C57BL/6 mouse model of high-fat diet induced obesity assessed as body weight change at 0.1 mg/kg, ip administered once a day for 3 weeks relative to control; format: functional
[20] = system: Mus musculus; assay: Anti-obesity activity in male C57BL/6 mouse model of high-fat diet induced obesity assessed as body weight change at 10 mg/kg, po administered once a day for 3 weeks relative to control; format: functional
[21] = Inhibition of V-ATPase in bovine chromaffin granules incubated for 1 hrs by absorbance based assay; format: subcellular, Bos taurus, Chromaffin granule
[22] = system: Mus musculus; assay: Anti-obesity activity in male C57BL/6 mouse model of high-fat diet induced obesity assessed as body weight change at 100 mg/kg, po administered once a day for 9 weeks relative to control; format: functional

Sequence of BDNF/NT-3 growth factors receptor (Q16620 whole entry, the tested form may be a part): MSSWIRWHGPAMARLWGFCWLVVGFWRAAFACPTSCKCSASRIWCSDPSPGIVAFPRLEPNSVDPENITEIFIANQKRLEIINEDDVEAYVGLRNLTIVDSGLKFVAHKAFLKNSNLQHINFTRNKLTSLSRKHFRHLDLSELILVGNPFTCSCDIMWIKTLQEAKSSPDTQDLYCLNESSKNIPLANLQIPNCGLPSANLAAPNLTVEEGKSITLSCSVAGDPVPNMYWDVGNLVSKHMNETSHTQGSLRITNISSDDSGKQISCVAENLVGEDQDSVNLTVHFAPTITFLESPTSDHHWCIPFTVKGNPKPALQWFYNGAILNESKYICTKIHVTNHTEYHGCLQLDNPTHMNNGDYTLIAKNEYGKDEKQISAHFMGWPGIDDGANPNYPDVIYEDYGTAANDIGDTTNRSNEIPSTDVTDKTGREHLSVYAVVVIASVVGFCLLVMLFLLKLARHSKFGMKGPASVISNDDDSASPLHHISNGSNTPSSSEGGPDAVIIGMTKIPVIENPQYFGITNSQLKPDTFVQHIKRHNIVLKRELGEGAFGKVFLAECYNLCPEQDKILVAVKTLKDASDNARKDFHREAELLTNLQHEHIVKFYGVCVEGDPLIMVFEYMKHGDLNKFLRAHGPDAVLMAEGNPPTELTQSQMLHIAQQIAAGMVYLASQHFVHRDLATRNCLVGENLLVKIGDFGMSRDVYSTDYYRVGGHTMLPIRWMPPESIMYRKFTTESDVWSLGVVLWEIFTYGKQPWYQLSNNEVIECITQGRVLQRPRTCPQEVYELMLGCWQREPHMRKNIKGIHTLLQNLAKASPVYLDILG

In the case of `CC(C)=CCC[C@]1(C)[C@@H](CC=C(C)C)C[C@]2(CC=C(C)C)C(=O)C(CC=C(C)C)=C(O)[C@@]1(C(=O)C(C)C)C2=O`, the pKd [1] was 6.24 and the Activity [2] was -13.7%.
In the case of `O=c1c(-c2ccc(O)c(O)c2)coc2cc(O)ccc12`, the Activity [3] was 63.5%.
Work on `O=c1oc2cc(O)ccc2c2ccc(O)cc12` yielded an Activity [4] of 30.8% and an Activity [5] of 42.7%.
With `CC(C)(O)[C@@H]1CC[C@](C)([C@H]2[C@@H](O)C[C@@]3(C)[C@@H]4C[C@H](O[C@@H]5O[C@H](CO)[C@@H](O)[C@H](O)[C@H]5O)[C@H]5C(C)(C)[C@@H](O[C@@H]6OC[C@@H](O)[C@H](O)[C@H]6O)CC[C@@]56C[C@@]46CC[C@]23C)O1` the Activity [6] was 25.4%.
In the case of `O=Cc1c(-c2nc3ccccc3c(=O)[nH]2)[nH]c2ccccc12`, the Activity [7] was -11.8%.
In the case of `COc1cc(O)c2c(=O)oc(-c3ccccc3)cc2c1CC=C(C)C`, the Activity [8] was 28.6% and the Activity [9] was 17.9%.
Work on `CCCCC/C=C\C/C=C\C[C@@H](C[C@@H]1OC(=O)[C@H]1CCCCCC)OC(=O)[C@H](CC(C)C)NC=O` yielded a pIC50 [10] of 6.85.
For `CC1(C)[C@@H](O)C(O)=C[C@]2(C)[C@H]3C(=O)C=C4[C@@H]5C[C@@](C)(C(=O)O)CC[C@]5(C)CC[C@@]4(C)[C@]3(C)CC[C@@H]12`, the Activity [11] was 26%, the Activity [12] was 20% and the LD50 [13] was 940 mg/kg.
Work on `O=c1cc(-c2ccccc2)oc2c(O)c(O)ccc12` [7,8-DIHYDROXYFLAVONE] yielded a pKd [14] of 8.00 and an Activity [15] of 72.2%.
`O=C(/C=C/c1ccc(O)c(O)c1)c1ccc(O)cc1O` [BUTEIN] showed an Activity [16] of 42.9%.
For `CC1=C(O)C(=O)C=C2C1=CC=C1[C@@]2(C)CC[C@@]2(C)[C@@H]3C[C@](C)(C(=O)O)CC[C@]3(C)CC[C@]12C` [CELASTROL], the LD50 [17] was 20.5 mg/kg, the Activity [18] was 1.8% and the Activity [19] was -27.7%. For the same molecule, the Activity [20] was -45.4%.
With `COc1cc2c(O)c3c(c(-c4ccc5c(c4)OCO5)c2cc1OC)C(=O)OC3` [DIPHYLLIN] the pIC50 [21] was 7.77 and the Activity [22] was 13.7%.
